Results on one substance are retold here after patent US8986733B2, “Materials and methods for nerve repair” (University of Florida Research Foundation, Inc., priority 2001, dated 2015).

Experiment [1] has as its system embryonic chick DRG neurons. In words: Cryoculture bioassay on sections of acellular rat nerve segments. It counts as cell-based. How it is done: (§1) Cryoculture bioassay. Cryoculture is a neurite outgrowth assay in which neurons are cultured directly on fresh/frozen nerve sections and was performed as described previously (Ferguson T A et al. [2000] Mol Cell Neurosci, 16:157-167). Briefly, chondroitinase- and vehicle-treated nerve segments were sectioned at 20 μm, mounted on sterile, aminopropyltriethoxysilane (APTS)-coated coverslips and stored at −20° C. until used. Where indicated, sections were treated with chondroitinase ABC (0.1 unit/ml) or vehicle (50 mM Tris-HCl, pH 8.0), containing 50 mM NaCl) for 2 h at 37° C. Purified dorsal root ganglionic (DRG) neurons from day 8 chick embryos were seeded directly on the nerve sections in a defined N2 medium (Bottenstein J E et al. [1980] Exp Cell Res 125:183-190) containing 10 ng/ml nerve growth factor. […] Neurite lengths were measured directly using IMAGE-PRO PLUS software (MEDIA CYBERNETICS, Silver Springs, Md.). At least 250 neurons with neurites greater than one cell body (˜15 μm) were scored for each condition in each experiment.
Inactivation of inhibitory CSPG in chondroitinase-treated acellular nerve was determined by cryoculture bioassay. Embryonic chick DRG neurons were seeded onto sections of prepared nerve segments and the neurite-promoting activity was assessed by scoring neurite growth. […]

The subject of the next experiment is rat sciatic nerve. In words: Interpositional acellular nerve grafting, GAP-43 axon scoring. It counts as in vivo. The source says: Preparation of acellular nerve grafts treated with chondroitinase. Adult (180-200 g) female SPRAGUE DAWLEY rats (HARLAN, Indianapolis, Ind.) were used as nerve donors and recipient hosts. Donor rats were anesthetized with halothane and decapitated. Sciatic nerves were exposed through a gluteal muscle-splitting incision and isolated free of underlying fascia. A 15-mm nerve segment was excised rostral to the bifurcation into common peroneal and tibial nerves. The segments were rinsed with cold sterile Ringer's solution, stabilized by pinning the ends to a thin plastic support, and transferred to a cryogenic vial. The vials were submerged in liquid nitrogen for 2 minutes and then transferred to a 37° C. water bath for 2 minutes. This freeze/thaw cycle was repeated, yielding acellular nerve grafts that were then stored in liquid nitrogen. On the day before grafting, the nerve grafts were warmed to room temperature and incubated in 100 μl phosphate buffered saline pH 7.4 (PBS) containing 2 units/ml chondroitinase ABC (SIGMA, St. Louis, Mo.) or in PBS (vehicle) only for 16 hours at 37° C. The grafts were rinsed twice with Ringer's and kept on ice prior to use. The chondroitinase ABC preparation was highly purified and stated by the manufacturer to be essentially free of protease activity.
Interpositional nerve grafting for chondroitinase experiments. Twelve rats received bilateral acellular nerve grafts, one chondroitinase-treated and one vehicle-treated graft. Host rats were deeply anesthetized using xylazine (15 mg/kg, i.m.) and ketamine (110 mg/kg, i.p.). The sciatic nerve was exposed and supported by a plastic insert placed between the nerve and underlying tissue. The region of nerve halfway between the sciatic notch and bifurcation was first coated with fibrin glue. […]
The main grafts were sectioned serially on the transverse plane in recorded measure to assess the extent of axonal growth by microscopy. […] GAP-43-positive axon profiles were scored using IMAGE-PRO PLUS software (MEDIA CYBERNETICS, Silver Springs, Md.). […]

The next experiment relates to chick DRG neurons. Briefly: Cryoculture assay using human nerve segments. It counts as cell-based. The settings on record: DRG neurons 24 h on treated human nerve sections. How it is done: Human nerves were treated with chondroitinase and then assayed for neurite-promoting activity. Dissociated chick DRG neurons were grown on the sections for 24 h and neurite lengths were scored. Results are expressed as means (−SEM). Statistical significance (P<0.001) comparing vehicle-treated and chondroitinase-treated conditions was found using Student's t test.
as §1, with “C.” for “C. Purified dorsal root ganglionic (DRG) neurons from day 8 chick embryos were seeded directly on the nerve sections in a defined N2 medium (Bottenstein J E et al. [1980] Exp Cell Res 125:183-190) containing 10 ng/ml nerve growth factor.”, “experiment. […]” for “experiment.”

chondroitinase ABC: in experiment [1] (sections from en bloc chondroitinase-treated nerve grafts), the “effect of post-treatment on neurite-promoting activity” value is reported as “only a slight additive effect”. In addition, in experiment [1] (sections of acellular nerve treated en bloc with vehicle only, post-treated after sectioning), the “increase in neurite-promoting activity by post-treatment of sections” value was found to be 86%. The “latency of axonal regeneration into acellular nerve grafts” value with rat sciatic nerve (4-day and 8-day grafts) is given as “decreases the latency”. For the same substance, the “axonal penetration vs control grafts” value in the experiment with rat sciatic nerve (4-day grafts, 0.3 mm from the host-graft interface) is recorded as “five-fold greater”. Also, the “average number of axons (GAP-43-immunopositive profiles) entering grafts vs control grafts” value in the experiment on rat sciatic nerve (8-day grafts, en bloc treated acellular syngrafts) was “more than three-fold greater”. Also, in the experiment on chick DRG neurons, the “growth-promoting properties of human nerves (neurite length)” value was “increased”.
